Results published in US10336732B2, “1-heterocyclyl isochromanyl compounds and analogs for treating CNS disorders” (Sunovion Pharmaceuticals Inc., priority 2015, dated 2019).

System: mice
Assay: Neuropharmacological assay (SmartCube), behavioral signature of compound-treated mice
Assay type: in vivo
Details: i.p. 15 min before behavioral test, most efficacious dose(s) of 3 doses
In short: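 Mice received compound i.p. in NMP/PEG/propylene glycol vehicle at 3 doses, 15 min before testing. Video-captured behavior was algorithmically compared with a reference-drug signature database.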

SMILES	AD: ADHD (probability that behavioral signature matches class)	AG: analgesic (probability that behavioral signature matches class)	AX: anxiolytic (probability that behavioral signature matches class)	CE: cognitive enhancer (probability that behavioral signature matches class)	DP: anti-depressant (probability that behavioral signature matches class)	HA: hallucinogen (probability that behavioral signature matches class)	MS: mood stabilizer (probability that behavioral signature matches class)	PS: anti-psychotic (probability that behavioral signature matches class)	SD: sedative hypnotic (probability that behavioral signature matches class)	UN: uncharacterized CNS activity (probability that behavioral signature matches class)	XG: anxiogenic (probability that behavioral signature matches class)
c1ccc2c(c1)CCO[C@H]2[C@H]1CCN1 [Compound I-82, (R)-2-((R)-isochroman-1-yl)azetidine]	+ (LOQ ≤ + <5%)	++ (5% ≤ ++ <25%)	++ (5% ≤ ++ <25%)	++ (5% ≤ ++ <25%)	+++ (25% ≤ +++ <50%)	+ (LOQ ≤ + <5%)	++ (5% ≤ ++ <25%)	++ (5% ≤ ++ <25%)	++ (5% ≤ ++ <25%)	++ (5% ≤ ++ <25%)	+ (LOQ ≤ + <5%)
Fc1cccc2c1[C@@H]([C@@H]1CCN1)OCC2 [Compound I-84, (S)-2-((S)-8-fluoroisochroman-1-yl)azetidine]	+ (LOQ ≤ + <5%)	+ (LOQ ≤ + <5%)	++ (5% ≤ ++ <25%)	+ (LOQ ≤ + <5%)	++ (5% ≤ ++ <25%)	+ (LOQ ≤ + <5%)	++ (5% ≤ ++ <25%)	++++ (50% ≤ ++++)	++ (5% ≤ ++ <25%)	+ (LOQ ≤ + <5%)	+ (LOQ ≤ + <5%)
Fc1ccc2c(c1)[C@@H]([C@@H]1CCN1)OCC2 [Compound I-85, (S)-2-((S)-7-fluoroisochroman-1-yl)azetidine]	+ (LOQ ≤ + <5%)	+ (LOQ ≤ + <5%)	++ (5% ≤ ++ <25%)	++ (5% ≤ ++ <25%)	++ (5% ≤ ++ <25%)	+ (LOQ ≤ + <5%)	+ (LOQ ≤ + <5%)	+++ (25% ≤ +++ <50%)	++ (5% ≤ ++ <25%)	++ (5% ≤ ++ <25%)	+ (LOQ ≤ + <5%)
Fc1ccc2c(c1)[C@H]([C@@H]1CCN1)OCC2 [Compound I-86, (S)-2-((R)-7-fluoroisochroman-1-yl)azetidine]	+ (LOQ ≤ + <5%)	+++ (25% ≤ +++ <50%)	+++ (25% ≤ +++ <50%)	++ (5% ≤ ++ <25%)	++ (5% ≤ ++ <25%)	+ (LOQ ≤ + <5%)	+ (LOQ ≤ + <5%)	+++ (25% ≤ +++ <50%)	++ (5% ≤ ++ <25%)	++ (5% ≤ ++ <25%)	+ (LOQ ≤ + <5%)
Fc1ccc2c(c1)[C@H]([C@H]1CCN1)OCC2 [Compound I-87, (R)-2-((R)-7-fluoroisochroman-1-yl)azetidine]	+ (LOQ ≤ + <5%)	++ (5% ≤ ++ <25%)	++ (5% ≤ ++ <25%)	+ (LOQ ≤ + <5%)	++ (5% ≤ ++ <25%)	+ (LOQ ≤ + <5%)	+ (LOQ ≤ + <5%)	+++ (25% ≤ +++ <50%)	+ (LOQ ≤ + <5%)	++ (5% ≤ ++ <25%)	+ (LOQ ≤ + <5%)
Fc1ccc2c(c1)[C@@H]([C@H]1CCN1)OCC2 [Compound I-88, (R)-2-((S)-7-fluoroisochroman-1-yl)azetidine]	+ (LOQ ≤ + <5%)	++ (5% ≤ ++ <25%)	+++ (25% ≤ +++ <50%)	++ (5% ≤ ++ <25%)	++ (5% ≤ ++ <25%)	+ (LOQ ≤ + <5%)	+ (LOQ ≤ + <5%)	++ (5% ≤ ++ <25%)	+ (LOQ ≤ + <5%)	+++ (25% ≤ +++ <50%)	+ (LOQ ≤ + <5%)
Fc1ccc2c(c1)CCO[C@@H]2[C@@H]1CCN1 [Compound I-89, (S)-2-((S)-6-fluoroisochroman-1-yl)azetidine]	++ (5% ≤ ++ <25%)	++ (5% ≤ ++ <25%)	++ (5% ≤ ++ <25%)	++ (5% ≤ ++ <25%)	+++ (25% ≤ +++ <50%)	+ (LOQ ≤ + <5%)	++ (5% ≤ ++ <25%)	+++ (25% ≤ +++ <50%)	+ (LOQ ≤ + <5%)	+ (LOQ ≤ + <5%)	+ (LOQ ≤ + <5%)
Fc1ccc2c(c1)CCO[C@@H]2[C@H]1CCN1 [Compound I-91, (R)-2-((S)-6-fluoroisochroman-1-yl)azetidine]	+ (LOQ ≤ + <5%)	++ (5% ≤ ++ <25%)	++ (5% ≤ ++ <25%)	++ (5% ≤ ++ <25%)	++ (5% ≤ ++ <25%)	+ (LOQ ≤ + <5%)	+ (LOQ ≤ + <5%)	+++ (25% ≤ +++ <50%)	++ (5% ≤ ++ <25%)	++ (5% ≤ ++ <25%)	+ (LOQ ≤ + <5%)
Fc1ccc2c(c1)CCO[C@H]2[C@H]1CCN1 [Compound I-92, (R)-2-((R)-6-fluoroisochroman-1-yl)azetidine]	+ (LOQ ≤ + <5%)	++ (5% ≤ ++ <25%)	++ (5% ≤ ++ <25%)	+++ (25% ≤ +++ <50%)	++ (5% ≤ ++ <25%)	+ (LOQ ≤ + <5%)	++ (5% ≤ ++ <25%)	+++ (25% ≤ +++ <50%)	+ (LOQ ≤ + <5%)	+ (LOQ ≤ + <5%)	+ (LOQ ≤ + <5%)
Fc1cccc2c1CCO[C@H]2[C@@H]1CCN1 [Compound I-93, (S)-2-((R)-5-fluoroisochroman-1-yl)azetidine]	++ (5% ≤ ++ <25%)	+++ (25% ≤ +++ <50%)	++ (5% ≤ ++ <25%)	++ (5% ≤ ++ <25%)	+++ (25% ≤ +++ <50%)	+ (LOQ ≤ + <5%)	+ (LOQ ≤ + <5%)	++ (5% ≤ ++ <25%)	++ (5% ≤ ++ <25%)	++ (5% ≤ ++ <25%)	+ (LOQ ≤ + <5%)
